# Reference: ChEMBL document CHEMBL2046369, “Self-calibrating viscosity probes: design and subcellular localization” (Bioorg Med Chem, 2012)
# What was measured:
# [1] = Drug uptake in human T24 cell cytoplasm at 2 uM after 1 hr by Dil-C28 dye staining-based inverted microscopic analysis; format: ADME; details: t-24, 1 h
# [2] = Drug uptake in human T24 cell cytoskeleton at 2 uM after 1 hr by Dil-C28 dye staining-based inverted microscopic analysis; format: ADME; details: t-24, 1 h
Structure (SMILES),Drug uptake [1],Drug uptake [2]
COc1ccc2cc(C(=O)NCCOCCOCCOC(=O)/C(C#N)=C/c3ccc(N4CCCCC4)s3)c(=O)oc2c1,Active,–
CCCCCCN(CCCCCC)c1ccc(/C=C(\C#N)C(=O)OCCCCCNC(=O)c2cc3ccc(OC)cc3oc2=O)s1,–,Active
